Experimental data from publication PMC5059489, “Mechanistic evaluation and transcriptional signature of a glutathione S-transferase omega 1 inhibitor” (Nature Communications, 2016).
“And” between values parts separate entries of the source, which are not always exact repeats. Equal entries are not always repeated. Where two headings read alike, the source gives them in different places.

Tests used:
[1] = target: T1, GSTO1 (Homo sapiens, UniProt P78417); assay: GSTO1 substrate assay (reduction of 4-NPG)
T1 sequence (P78417 1-241): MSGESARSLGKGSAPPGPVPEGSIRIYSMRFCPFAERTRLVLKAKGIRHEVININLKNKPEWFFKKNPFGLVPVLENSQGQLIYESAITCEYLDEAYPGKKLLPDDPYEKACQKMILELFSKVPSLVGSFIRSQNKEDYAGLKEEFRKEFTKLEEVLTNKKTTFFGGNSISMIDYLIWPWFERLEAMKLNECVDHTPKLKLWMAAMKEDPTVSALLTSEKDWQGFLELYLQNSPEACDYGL
Description: For activity screening, we adapted a GSTO1 substrate assay that relies on the quantification of the reduction of S-(4-nitrophenacyl)glutathione (4-NPG), a GSTO1-specific substrate[17], using recombinant human GSTO1 in a high-throughput screening format.
Enzyme activity was measured by monitoring the reduction of 4-NPG to 4-nitroacetophenone by GSTO1.

[2] = target: T1, GSTO1; assay: In-gel fluorescence competitive CMFDA binding assay, recombinant GSTO1; conditions: inhibition of CMFDA binding
Description: (§1) Primary screening of GSTO inhibitors was based on competitive inhibition of CMFDA binding to endogenous GSTO. Briefly, HCT116^p53+/+ cells (4 × 10^4 per well) were coated in a 12-well plate. […] Cells were then washed with PBS and lysed using Cell Lytic M buffer (Sigma). […] Gels were immediately scanned on a Typhoon variable mode imager (Amersham Bioscience). Quantification of fluorescent band intensity was done using Image Quant 5.2 software.

[3] = target: T2, endogenous GSTO1 (Homo sapiens, UniProt P78417); assay: In-gel fluorescence competitive CMFDA binding assay, endogenous GSTO1 in HCT116; conditions: 10 µM; inhibition of CMFDA binding, HCT116
T2 sequence (P78417 1-241): T1 sequence (P78417 1-241)
Description: as §1

[4] = system: HCT116p53+/+ cell; assay: MTT cell proliferation at single concentration; format: cell-based, human
Description: Cell proliferation was assessed by a MTT assay. Cancer cells were seeded in 96-well microtitre plates and, after overnight attachment, treated with GSTO1 inhibitors. After 72 h, MTT solution (3 mg ml^−1; 20 μl) was added to each well and cells were incubated for 3 h at 37 °C. After incubation, media from each well was removed and the dark blue formazan crystals formed by live cells were dissolved in DMSO (150 μl per well). The absorbance intensity was measured at 570 nm on a microplate reader (Molecular Devices, Sunnyvale, CA, USA). Cell viability after 24 h treatment was assessed using ApoTox-Glo triplex assay (Promega) according to the manufacturer's protocol. At least three independent dose–response experiments with each concentration tested in triplicate were performed for each cell line.

[5] = read-out: GSTO substrate assay IC50, cluster screening tables

| GSTO substrate assay % Inhibition at 10 µM [1] | GSTO binding assay (% Inhibition at 10 µM) Recombinant [2] | GSTO binding assay (% Inhibition at 10 µM) Endogenous [3] | IC50 [1, 5] | IC50 ([1]; Substrate assay IC50, pilot screening) | Structure (SMILES) | % Inhibition of HCT116p53+/+ cell proliferation at 10 µM [4] |
| --- | --- | --- | --- | --- | --- | --- |
| -1.5% | 58.2% | 19.9% | – | – | CCOC(=O)c1sc(-c2ccccc2)cc1NC(=O)CCl [C2-11] | – |
| 20.7% | 66.7% | 43.5% | – | – | CN(CCOc1ccc(Cl)cc1)C(=O)CCl [C4-9] | – |
| 69.5% | 9.4% | – | – | – | COc1cc2c(cc1OC)CN(C(=O)CCl)CC2 [C5-17] | – |
| 40.0% | 72.2% | – | – | – | O=C(CCl)N1CCc2cc([N+](=O)[O-])ccc21 [C5-19] | 84.6% and 75.2% |
| 22.7% | 45.6% | 87.6% | – | – | O=C(CCl)Nc1ccc(OC(F)F)cc1 [C1-6] | – |
| 3.4% | 74.9% | 59.8% | – | – | CCOC(=O)c1c(-c2ccc(OC)c(OC)c2)csc1NC(=O)CCl [C2-12] | – |
| -2.8% | 59.5% | – | – | – | Cc1ccc(-c2oc(NC(=O)CCl)c(C#N)c2-c2ccc(C)cc2)cc1 [C2-28] | 88.5% |
| 72.3% | 29.2% | 58.8% | – | – | Cc1cc(C)c(NC(=O)CNC(=O)CCl)c(C)c1 [C3-24] | – |
| 16.2% | 17.7% | – | – | – | Cc1cc(C(C)(C)C)cc(C)c1NC(=O)CCl [C1-1] | 14% and 21.3% |
| 72.7% | 69.7% | – | 164 nM | – | CN(C)S(=O)(=O)c1ccc2c(c1)CCCN2C(=O)CCl [C5-18] | 91.6% and 91.4% |
| 32.3% | -1.7% | – | – | – | NC(=O)CCN(C(=O)CCl)c1ccccc1 [C4-3] | 70.6% and 71.9% |
| 5.1% | 35.7% | 86.9% | – | – | Cc1ccc(CSCCNC(=O)CCl)cc1 [C3-15] | – |
| 100.9% | 61.2% | 56.5% | 5680 nM | – | COC(=O)c1ccc(C(=O)OC)c(NC(=O)CCl)c1 [C1-8] | – |
| 91.8% | 61.2% | 60.9% | 496 nM | – | O=C(CCl)N1CCN(S(=O)(=O)c2ccc(F)c(F)c2)CC1 [C5-14] | – |
| 12.5% | 23.6% | 53.1% | – | – | O=C(CCl)NCCN1C(=O)SC(=Cc2ccccc2F)C1=O [C3-32] | – |
| 91.3% | 43.8% | 78.6% | – | – | CCN(c1ccc(NC(=O)CCl)cc1)C(C)C [C1-15] | – |
| 99.5% | 78.6% | 52.3% | 350 nM | – | CCOc1ccc(/C=C/C2=Cc3c(sc(NC(=O)CCl)c3C#N)C(C)(C)C2)cc1 [C2-21] | – |
| 87.8% | 63.2% | 74.2% | 360 nM | – | Cc1c(-c2ccccc2)sc(NC(=O)CCl)c1C(=O)N1CCOCC1 [C2-15] | – |
| 91.1% | 68.3% | 39.6% | – | – | O=C(CCl)Nc1sc2c(c1C(=O)c1ccccc1)CCCC2 [C2-20] | – |
| 9.8% | 70.3% | – | – | – | CN(C1CCCCC1)S(=O)(=O)c1ccc(NC(=O)CCl)cc1 [C1-25] | 11.3% and 21.7% |
| 56.2% | 53.7% | 51.3% | 7880 nM | – | CC(C)c1ccc(C(NC(=O)CCl)C(C)C)cc1 (stereo not drawn) [C3-6] | – |
| 69.5% | 68.2% | 42.2% | – | – | CCOC(=O)c1c(-c2ccccc2)csc1NC(=S)NC(=O)CCl [C3-26] | – |

| GSTO substrate assay % Inhibition at 10 µM [1] | GSTO binding assay (% Inhibition at 10 µM) Recombinant [2] | GSTO binding assay (% Inhibition at 10 µM) Endogenous [3] | IC50 [1, 5] | IC50 ([1]; Substrate assay IC50, pilot screening) | Structure (SMILES) | % Inhibition of HCT116p53+/+ cell proliferation at 10 µM [4] |
| --- | --- | --- | --- | --- | --- | --- |
| 11.1% | 6.0% | 7.3% | – | – | O=C(CCl)NCc1ccccc1CN1CCOCC1 [C3-1] | – |
| -4.9% | 0.9% | 3.8% | – | – | O=C(CCl)Nc1c(Br)cc([N+](=O)[O-])cc1Br [C1-3] | – |
| 93.2% | 47.9% | 52.0% | – | – | O=C(CCl)NCc1cc([N+](=O)[O-])ccc1O [C3-3] | – |
| 99.5% | 59.2% | 65.2% | 508 nM | – | CCOc1ccc(NC(=O)NC(=O)CCl)cc1OCC [C3-19] | – |
| 83.1% | 10.6% | 14.5% | – | – | Cc1nn(Cc2ccccc2)c(C)c1CNC(=O)CCl [C3-30] | – |
| 62.6% | 25.1% | – | – | – | CCOc1ccc(OCCNC(=O)CCl)cc1 [C3-13] | – |
| 3.7% | 75.7% | – | – | – | O=C(CCl)Nc1nc(-c2c[nH]c3ccccc23)cs1 [C2-25] | 0.5% and 4.3% |
| -0.8% | 5.9% | 17.0% | – | – | CCN(C(=O)CCl)C1CCS(=O)(=O)C1 (stereo not drawn) [C4-4] | – |
| 83.5% | 67.5% | – | 48 nM | – | O=C(CCl)N1CCC(Cc2ccccc2)CC1 [C5-1] | 93.4% |
| 54.2% | 63.4% | 63.8% | 1650 nM | – | Cc1cccc(NC(=S)NC(NC(=O)CCl)C(Cl)(Cl)Cl)c1 (stereo not drawn) [C3-27] | – |
| – | – | – | – | 80800 nM | O=C(CCl)Nc1ccccc1NC(=O)CCl [4c] | – |
| 75% | 75.9% | 80.8% | 79 nM | – | CCOc1ccc(NC(=O)CCl)cc1S(=O)(=O)N1CCCCC1 [C1-30] | – |
| 70.2% | 69.3% | – | 902 nM | – | C=CCOc1ccccc1CN(C(=O)CCl)c1ccc2c(c1)OCCO2 [C4-17] | 29% |
| 26.4% | 76.0% | – | – | – | Cc1cc(C)c(-c2csc(NC(=O)CCl)n2)cc1C [C2-23] | – |
| -8.4% | 69.9% | 58.2% | – | – | O=C(CCl)Nc1ccccc1N1CCOCC1 [C1-21] | – |
| 10.4% | -2.4% | -12.1% | – | – | COc1cc(C(=O)NNC(=O)CCl)cc(OC)c1OC [C3-22] | – |
| 0.3% | -13.7% | 23.0% | – | – | O=C(CCl)NCC1(N2CCCCC2)CCCCC1 [C3-31] | – |
| 14.2% | 4.5% | 18.7% | – | – | COCCN(C(=O)CCl)c1c(N)n(Cc2ccccc2)c(=O)[nH]c1=O [C4-18] | – |
| 84.2% | 4.4% | 48.2% | – | – | CCN(CC)c1ccc(S(=O)(=O)N2CCOCC2)cc1NC(=O)CCl [C1-32] | – |
| 42.7% | 13.5% | 65.0% | – | – | CCC1(c2ccccc2)NC(=O)N(NC(=O)CCl)C1=O (stereo not drawn) [C2-29] | – |
| 0.6% | 0.3% | 37.5% | – | – | O=C(CCl)NC(=O)c1cccc2ccccc12 [C3-18] | – |
